Reference: patent publication US6489469B1, “Method for storing or transporting erythritol solution” (Nikken Chemicals Co., Ltd., priority 1999, dated 2002)

Columns and labels:
[1] = Long-term Stability of Erythritol Solution by High Temperature Storage; assay type: physicochemical; set-up: change in the degree of coloring / Degree of Coloring: scale not given here
Method: solutions having erythritol concentrations of 50%, 55%, 58% and 62%, respectively, were prepared and stored at 55° C., 60° C., 65° C. and 75° C. respectively, for 2 months and degree of coloring, pH, and purity were measured and the degree of deterioration was studied.

[2] = tested on: Staphylococcus aureus IFO 13276; experiment: Viable Count of Staphylococcus aureus IFO 13276 in Erythritol Solution; assay type: cell-based
Method: Erythritol solutions of respective concentrations in the range of from 30 to 60% were prepared. To these were inoculated Staphylococcus aureus IFO 13276, Bacillus subtilis IFO 3134, and Escherichia coli IFO 3972 as bacteria, Candida albicans IFO 1549 and Saccharomyces cerevisiae ATCC 9763 as yeasts, Aspergillus niger IFO 6342, Aspergillus flavus IFO 6343, and Penicillium funiculosum IFO 6345 as fungi, respectively, in a population (concentration) of 10,000 cells/mL or more. After the inoculation, the solutions were stored at 30, 37, 45, 50, or 60° C., respectively, for 56 days and the number of viable cell was determined daily. The determination of the number of viable cell was performed by a method of coating 0.1 mL of appropriately diluted sample cultivation on an agar plate and cultivating and counting the number of viable cell (the number of colony) that grew after the cultivation.

[3] = Storage Temperature: 65° C., Erythritol Concentration: 58%, 30 days
[4] = Storage Temperature: 65° C., Erythritol Concentration: 58%, 60 days
[5] = Storage Temperature: 75° C., Erythritol Concentration: 62%, 0 days
[6] = Storage Temperature: 75° C., Erythritol Concentration: 62%, 10 days
[7] = Storage Temperature: 75° C., Erythritol Concentration: 62%, 30 days
[8] = Storage Temperature: 75° C., Erythritol Concentration: 62%, 60 days

Question: Which results are given for `OC[C@@H](O)[C@@H](O)CO` [Erythritol Solution, erythritol]?
Answer: pH ([1]; Storage Temperature: 65° C., Erythritol Concentration: 58%, 10 days): 5.5; Degree of Coloring [1, 3]: 0.029; Purity (%) [1, 3]: 100.0%; pH [1, 3]: 5.2; Degree of Coloring [1, 4]: 0.036; Purity (%) [1, 4]: 99.9%; pH [1, 4]: 4.7; Degree of Coloring [1, 5]: 0.025; Purity (%) [1, 5]: 99.9%; pH [1, 5]: 5.7; Degree of Coloring [1, 6]: 0.027; Purity (%) [1, 6]: 99.9%; pH [1, 6]: 5.2; Degree of Coloring [1, 7]: 0.033; Purity (%) [1, 7]: 99.9%; pH [1, 7]: 4.8; Degree of Coloring [1, 8]: 0.065; Purity (%) [1, 8]: 99.9%; pH [1, 8]: 3.9; storage stability (purity, coloring) ([1]; storage at a temperature of 55 to 65° C.): without causing a decrease in purity or causing coloring; The Number of Viable Cell ([2]; 30° C., 30% w/w, Day 0): 10000 or more cells/mL; The Number of Viable Cell ([2]; 30° C., 30% w/w, Day 3): 20400 cells/mL; The Number of Viable Cell ([2]; 30° C., 30% w/w, Day 7): 11100 cells/mL; The Number of Viable Cell ([2]; 30° C., 30% w/w, Day 14): 360 cells/mL; The Number of Viable Cell ([2]; 30° C., 30% w/w, Day 28): 0 cells/mL; The Number of Viable Cell ([2]; 30° C., 30% w/w, Day 56): 0 cells/mL; The Number of Viable Cell ([2]; 30° C., 40% w/w, Day 0): 10000 or more cells/mL; The Number of Viable Cell ([2]; 30° C., 40% w/w, Day 3): 8380 cells/mL; The Number of Viable Cell ([2]; 30° C., 40% w/w, Day 7): 6200 cells/mL; The Number of Viable Cell ([2]; 30° C., 40% w/w, Day 14): 4200 cells/mL; The Number of Viable Cell ([2]; 30° C., 40% w/w, Day 28): 0 cells/mL; The Number of Viable Cell ([2]; 30° C., 40% w/w, Day 56): 0 cells/mL; The Number of Viable Cell ([2]; 45° C., 30% w/w, Day 0): 10000 or more cells/mL; The Number of Viable Cell ([2]; 45° C., 30% w/w, Day 3): 0 cells/mL; The Number of Viable Cell ([2]; 45° C., 30% w/w, Day 7): 0 cells/mL; The Number of Viable Cell ([2]; 45° C., 30% w/w, Day 14): 0 cells/mL; The Number of Viable Cell ([2]; 45° C., 30% w/w, Day 28): 0 cells/mL; The Number of Viable Cell ([2]; 45° C., 30% w/w, Day 56): 0 cells/mL; The Number of Viable Cell ([2]; 45° C., 40% w/w, Day 0): 10000 or more cells/mL; The Number of Viable Cell ([2]; 45° C., 40% w/w, Day 3): 0 cells/mL; The Number of Viable Cell ([2]; 45° C., 40% w/w, Day 7): 0 cells/mL; The Number of Viable Cell ([2]; 45° C., 40% w/w, Day 14): 0 cells/mL; The Number of Viable Cell ([2]; 45° C., 40% w/w, Day 28): 0 cells/mL; The Number of Viable Cell ([2]; 45° C., 40% w/w, Day 56): 0 cells/mL; The Number of Viable Cell ([2]; 45° C., 50% w/w, Day 0): 10000 or more cells/mL; The Number of Viable Cell ([2]; 45° C., 50% w/w, Day 3): 0 cells/mL; The Number of Viable Cell ([2]; 45° C., 50% w/w, Day 7): 0 cells/mL; The Number of Viable Cell ([2]; 45° C., 50% w/w, Day 14): 0 cells/mL; The Number of Viable Cell ([2]; 45° C., 50% w/w, Day 28): 0 cells/mL; The Number of Viable Cell ([2]; 45° C., 50% w/w, Day 56): 0 cells/mL; The Number of Viable Cell ([2]; 50° C., 30% w/w, Day 0): 10000 or more cells/mL; The Number of Viable Cell ([2]; 50° C., 30% w/w, Day 3): 0 cells/mL; The Number of Viable Cell ([2]; 50° C., 30% w/w, Day 7): 0 cells/mL; The Number of Viable Cell ([2]; 50° C., 30% w/w, Day 14): 0 cells/mL; The Number of Viable Cell ([2]; 50° C., 30% w/w, Day 28): 0 cells/mL; The Number of Viable Cell ([2]; 50° C., 30% w/w, Day 56): 0 cells/mL; The Number of Viable Cell ([2]; 50° C., 40% w/w, Day 0): 10000 or more cells/mL; The Number of Viable Cell ([2]; 50° C., 40% w/w, Day 3): 0 cells/mL; The Number of Viable Cell ([2]; 50° C., 40% w/w, Day 7): 0 cells/mL; The Number of Viable Cell ([2]; 50° C., 40% w/w, Day 14): 0 cells/mL; The Number of Viable Cell ([2]; 50° C., 40% w/w, Day 28): 0 cells/mL; The Number of Viable Cell ([2]; 50° C., 40% w/w, Day 56): 0 cells/mL; The Number of Viable Cell ([2]; 50° C., 50% w/w, Day 0): 10000 or more cells/mL; The Number of Viable Cell ([2]; 50° C., 50% w/w, Day 3): 0 cells/mL; The Number of Viable Cell ([2]; 50° C., 50% w/w, Day 7): 0 cells/mL; The Number of Viable Cell ([2]; 50° C., 50% w/w, Day 14): 0 cells/mL; The Number of Viable Cell ([2]; 50° C., 50% w/w, Day 28): 0 cells/mL; The Number of Viable Cell ([2]; 50° C., 50% w/w, Day 56): 0 cells/mL; growth of the microbes ([2]; temperature of 50° C. or more): prevented from growing; time after which microbes died ([2]; temperature of 50° C. or more): 3 days
